Paper PMC10641818, “Development of First-in-Class Dual Sirt2/HDAC6 Inhibitors as Molecular Tools for Dual Inhibition of Tubulin Deacetylation” (Journal of Medicinal Chemistry, 2023)

Experiments:
Sirt3 = target: T1, Sirt3 (Homo sapiens, UniProt Q9NTG7); assay: Sirt3 in vitro deacetylation assay (ZMAL); format: biochemical
T1 construct: the respective sirtuin (Sirt1_134–747, Sirt2_56–356, or Sirt3_118–395) was mixed with; made in house; host or cells: Escherichia coli BL21 Star (DE3)
T1 sequence (Q9NTG7 118-395): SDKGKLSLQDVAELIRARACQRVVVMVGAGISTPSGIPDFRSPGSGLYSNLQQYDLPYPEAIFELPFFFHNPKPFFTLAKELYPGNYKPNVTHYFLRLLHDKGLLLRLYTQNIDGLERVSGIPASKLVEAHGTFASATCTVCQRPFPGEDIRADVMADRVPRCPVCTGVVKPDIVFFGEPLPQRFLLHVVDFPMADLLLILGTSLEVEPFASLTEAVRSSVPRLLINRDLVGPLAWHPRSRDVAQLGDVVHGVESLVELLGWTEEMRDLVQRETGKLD

HDAC1 = target: T2, HDAC1 (Homo sapiens, UniProt Q13547); assay: HDAC1 in vitro deacetylation assay (ZMAL); format: biochemical; settings: deacetylation, mean ± SD
T2 construct: purchased BPS Bioscience 50051

HDAC6 = target: T3, HDAC6 (Homo sapiens, UniProt Q9UBN7); assay: HDAC6 in vitro deacetylation assay (ZMAL); format: biochemical; set-up: purchased BPS Bioscience 50006; settings: deacetylation, mean ± SD
T3 sequence (Q9UBN7 1-1215): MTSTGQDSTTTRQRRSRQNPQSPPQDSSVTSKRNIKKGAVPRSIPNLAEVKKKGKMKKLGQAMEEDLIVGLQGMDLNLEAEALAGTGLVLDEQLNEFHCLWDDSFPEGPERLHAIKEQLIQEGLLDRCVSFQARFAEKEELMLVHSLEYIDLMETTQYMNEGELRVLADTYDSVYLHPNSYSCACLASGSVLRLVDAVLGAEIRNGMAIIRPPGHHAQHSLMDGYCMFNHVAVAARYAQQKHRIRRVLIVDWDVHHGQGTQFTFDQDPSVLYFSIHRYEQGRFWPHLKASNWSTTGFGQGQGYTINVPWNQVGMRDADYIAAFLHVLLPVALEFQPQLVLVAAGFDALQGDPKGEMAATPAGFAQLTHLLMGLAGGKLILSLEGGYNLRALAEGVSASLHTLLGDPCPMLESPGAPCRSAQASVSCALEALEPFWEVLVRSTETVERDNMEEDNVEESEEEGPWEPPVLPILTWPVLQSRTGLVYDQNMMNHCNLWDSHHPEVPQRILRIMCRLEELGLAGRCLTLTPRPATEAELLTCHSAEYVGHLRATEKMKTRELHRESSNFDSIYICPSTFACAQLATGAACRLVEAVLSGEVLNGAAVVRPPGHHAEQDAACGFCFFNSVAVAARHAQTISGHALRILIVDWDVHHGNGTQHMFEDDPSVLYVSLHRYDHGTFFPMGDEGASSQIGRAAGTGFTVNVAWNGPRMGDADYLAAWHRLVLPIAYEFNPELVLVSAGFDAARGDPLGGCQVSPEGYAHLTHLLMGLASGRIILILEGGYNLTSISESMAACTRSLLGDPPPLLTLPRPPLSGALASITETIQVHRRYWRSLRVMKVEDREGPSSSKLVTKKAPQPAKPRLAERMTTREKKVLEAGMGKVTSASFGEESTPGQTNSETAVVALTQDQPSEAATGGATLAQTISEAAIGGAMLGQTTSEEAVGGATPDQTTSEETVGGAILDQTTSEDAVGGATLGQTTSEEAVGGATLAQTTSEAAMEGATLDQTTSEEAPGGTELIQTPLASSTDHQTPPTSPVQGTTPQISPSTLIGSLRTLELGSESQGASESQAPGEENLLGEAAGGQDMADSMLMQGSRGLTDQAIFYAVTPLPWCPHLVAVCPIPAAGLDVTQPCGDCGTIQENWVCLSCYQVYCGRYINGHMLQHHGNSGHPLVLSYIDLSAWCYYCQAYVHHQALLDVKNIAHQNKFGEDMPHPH

HDAC3/NcoR2 = target: T4, HDAC3/NcoR2 (Homo sapiens, UniProt O15379); assay: HDAC3 in vitro deacetylation assay (ZMAL); format: biochemical; settings: mean ± SD
T4 construct: purchased BPS Bioscience 50003

[1] = test system: PC-3M-luc prostate cancer cells; assay: Cell viability assay (MTS) PC-3M-luc; format: cell-based; settings: 72 h, @ 50 μM
Method: (§1) Cell viability assays of HGC27 and PC-3M-luc cells were performed by using the Celltiter 96 Aqueous Nonradioactive Proliferation Assay (Promega). Cells were seeded in sterile 96-well plates at a density of 2000 cells per well and incubated overnight at 37 °C and 5% CO2. Compound or vehicle were added to a final concentration of 0.5% DMSO. […] Cells were seeded at densities of 10^4 cells/well for W1 cells or 2 × 10^3 cells/well for MCF-7 cells. Tests were performed in 96-well plates (Sarstedt AG, Nümbrecht, Germany). After incubation overnight, cells were supplemented with half logarithmic dilution series of the indicated compounds and DPBS (PAN Biotech GmbH, Aidenbach, Germany) as control. Then 72 h after addition of cytostatic treatment, the MTT solution (20 μL, 5 mg/mL) was added into the wells for 1 h at 37 °C and 5% CO2 until formazan crystals were formed. The supernatant was removed, and the cells were dissolved in 200 μL of DMSO. Absorption was analyzed at 570 nm, with background subtraction at 690 nm, using a plate reader (Thermomultiscan EX, Thermo, Schwerte, Germany). Cell viability was then determined by nonlinear regression and a four-parameter logistic equation with variable hill slope. […] The significance of the difference of the effects of 33 and 4 + 57 was determined by using an unpaired, two-tailed t test with Welch’s correction, implemented in GraphPad Prism 8.4.0 (GraphPad, USA). Statistical significance was accepted if p < 0.05. Asterisks indicate *p < 0.05, **p < 0.01.

[2] = test system: MCF-7 breast cancer cells; assay: Cell viability assay (MTT) MCF-7; format: cell-based; settings: 72 h, @ 50 μM
Method: as §1

[3] = test system: HGC27 gastric carcinoma cells; assay: Cell viability assay (MTS) HGC27; format: cell-based; settings: Homo sapiens, HGC-27; 72 h, MTS, mean ± SD
Method: as §1

Sirt2 (demyristoylation) = target: T5, Sirt2 (demyristoylation) (Homo sapiens, UniProt Q8IXJ6); assay: Discontinuous Sirt2 demyristoylation assay (ZMML substrate); format: biochemical; settings: mean ± SD
T5 construct: the respective sirtuin (Sirt1_134–747, Sirt2_56–356, or Sirt3_118–395) was mixed with; made in house; host or cells: Escherichia coli BL21 Star (DE3)
T5 sequence (Q8IXJ6 56-356): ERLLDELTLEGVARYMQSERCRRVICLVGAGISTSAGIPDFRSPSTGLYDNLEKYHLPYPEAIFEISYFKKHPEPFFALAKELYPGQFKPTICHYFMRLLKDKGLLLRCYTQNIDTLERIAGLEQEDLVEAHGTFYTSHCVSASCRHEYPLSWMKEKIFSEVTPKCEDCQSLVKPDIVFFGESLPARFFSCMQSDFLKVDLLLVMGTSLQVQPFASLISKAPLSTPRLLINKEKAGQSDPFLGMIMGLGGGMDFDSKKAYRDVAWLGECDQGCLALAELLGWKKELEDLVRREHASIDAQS

W1 ovarian cancer cells = assay: Cell viability assay (MTT) W1; format: cell-based; settings: 72 h, @ 50 μM
Method: as §1

HDAC2 = target: T6, HDAC2 (Homo sapiens, UniProt Q92769); assay: HDAC2 in vitro deacetylation assay (ZMAL); format: biochemical; settings: mean ± SD
T6 construct: purchased BPS Bioscience 50052

Sirt1 = target: T7, Sirt1 (Homo sapiens, UniProt Q96EB6); assay: Sirt1 in vitro deacetylation assay (ZMAL); format: biochemical
T7 construct: the respective sirtuin (Sirt1_134–747, Sirt2_56–356, or Sirt3_118–395) was mixed with; made in house; host or cells: Escherichia coli BL21 Star (DE3)
T7 sequence (Q96EB6 134-747): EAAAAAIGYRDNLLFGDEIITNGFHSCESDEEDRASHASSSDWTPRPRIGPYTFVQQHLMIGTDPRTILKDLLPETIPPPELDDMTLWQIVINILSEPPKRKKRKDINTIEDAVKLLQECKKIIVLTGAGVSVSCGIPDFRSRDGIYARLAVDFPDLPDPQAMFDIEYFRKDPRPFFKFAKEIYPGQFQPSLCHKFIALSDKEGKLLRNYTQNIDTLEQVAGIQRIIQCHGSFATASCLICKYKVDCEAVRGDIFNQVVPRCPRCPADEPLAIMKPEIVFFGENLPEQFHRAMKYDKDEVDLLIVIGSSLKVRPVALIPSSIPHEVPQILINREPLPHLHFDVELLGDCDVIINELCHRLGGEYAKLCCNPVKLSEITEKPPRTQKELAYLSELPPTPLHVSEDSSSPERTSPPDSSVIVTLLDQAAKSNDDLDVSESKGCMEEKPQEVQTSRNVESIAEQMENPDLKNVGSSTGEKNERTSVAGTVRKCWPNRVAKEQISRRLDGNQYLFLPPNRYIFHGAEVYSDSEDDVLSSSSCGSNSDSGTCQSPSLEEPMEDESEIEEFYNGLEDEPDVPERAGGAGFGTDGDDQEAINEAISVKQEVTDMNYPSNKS

Sirt2 = target: T8, Sirt2 (Homo sapiens, UniProt Q8IXJ6); assay: Sirt2 in vitro deacetylation assay (ZMAL, trypsin-based fluorescence); format: biochemical; settings: deacetylation, mean ± SD
T8 construct: the respective sirtuin (Sirt1_134–747, Sirt2_56–356, or Sirt3_118–395) was mixed with; made in house; host or cells: Escherichia coli BL21 Star (DE3)
T8 sequence (Q8IXJ6 56-356): T5 sequence (Q8IXJ6 56-356)

T4 sequence (O15379 whole entry): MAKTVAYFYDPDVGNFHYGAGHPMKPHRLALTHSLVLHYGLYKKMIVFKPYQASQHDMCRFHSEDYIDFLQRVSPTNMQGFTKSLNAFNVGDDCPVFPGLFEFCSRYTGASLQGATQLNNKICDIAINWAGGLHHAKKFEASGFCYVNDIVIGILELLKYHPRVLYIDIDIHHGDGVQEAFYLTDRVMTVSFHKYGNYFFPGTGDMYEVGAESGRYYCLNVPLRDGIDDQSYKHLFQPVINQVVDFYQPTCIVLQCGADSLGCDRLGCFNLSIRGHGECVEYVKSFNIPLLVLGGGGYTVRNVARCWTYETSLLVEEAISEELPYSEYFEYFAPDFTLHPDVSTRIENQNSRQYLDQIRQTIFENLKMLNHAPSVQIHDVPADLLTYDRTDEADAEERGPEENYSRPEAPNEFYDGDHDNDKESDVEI
T4 sequence (Q9Y618 395-489 partner limits assumed): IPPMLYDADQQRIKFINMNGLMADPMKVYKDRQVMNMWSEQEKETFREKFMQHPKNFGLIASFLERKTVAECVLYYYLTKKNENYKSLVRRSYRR
T6 sequence (Q92769 whole entry): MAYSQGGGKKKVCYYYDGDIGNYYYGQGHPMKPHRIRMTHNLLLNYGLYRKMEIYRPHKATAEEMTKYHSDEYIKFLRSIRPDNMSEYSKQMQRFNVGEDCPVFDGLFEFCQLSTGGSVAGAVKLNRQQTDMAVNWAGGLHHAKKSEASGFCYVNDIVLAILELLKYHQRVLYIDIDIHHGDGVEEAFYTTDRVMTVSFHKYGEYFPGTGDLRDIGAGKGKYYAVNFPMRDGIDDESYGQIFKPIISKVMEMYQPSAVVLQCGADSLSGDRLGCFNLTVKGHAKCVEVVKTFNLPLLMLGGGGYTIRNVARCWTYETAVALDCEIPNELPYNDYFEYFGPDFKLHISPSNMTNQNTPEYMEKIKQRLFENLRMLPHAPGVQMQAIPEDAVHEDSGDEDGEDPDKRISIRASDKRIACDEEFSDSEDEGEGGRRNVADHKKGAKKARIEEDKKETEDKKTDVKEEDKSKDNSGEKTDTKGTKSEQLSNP
T2 sequence (Q13547 whole entry): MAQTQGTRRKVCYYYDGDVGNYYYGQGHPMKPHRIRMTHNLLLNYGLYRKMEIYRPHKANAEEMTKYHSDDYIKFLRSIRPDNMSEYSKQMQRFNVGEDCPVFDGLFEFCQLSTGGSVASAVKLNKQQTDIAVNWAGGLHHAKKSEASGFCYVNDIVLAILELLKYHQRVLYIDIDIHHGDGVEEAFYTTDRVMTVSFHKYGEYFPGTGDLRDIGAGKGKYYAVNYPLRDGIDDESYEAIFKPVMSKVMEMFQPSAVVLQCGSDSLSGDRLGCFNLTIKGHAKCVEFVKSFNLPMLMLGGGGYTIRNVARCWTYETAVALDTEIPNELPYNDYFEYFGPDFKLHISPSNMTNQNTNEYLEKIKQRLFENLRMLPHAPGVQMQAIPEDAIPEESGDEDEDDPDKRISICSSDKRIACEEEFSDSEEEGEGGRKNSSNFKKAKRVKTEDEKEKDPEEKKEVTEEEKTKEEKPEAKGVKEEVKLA

`Cc1cc(C)nc(SCC(=O)Nc2ncc(Cc3cccc(OCc4cn(CCOCCOCCOCCOCCC(=O)Nc5ccc(C(=O)NCCCCCCC(=O)NO)cc5)nn4)c3)s2)n1` [Compound 46, 4-(1-(4-((3-((2-(2-((4,6-Dimethylpyrimidin-2-yl)thio)acetamido)thiazol-5-yl)methyl)phenoxy)methyl)-1H-1,2,3-triazol-1-yl)-3,6,9,12-tetraoxapentadecan-15-amido)-N-(7-(hydroxyamino)-7-oxoheptyl)benzamide] was tested, and the inhibition at 20 µM (Sirt3) was less than 15%, the IC50 (HDAC1) was 210 ± 30 nM and the IC50 (HDAC6) was 5 ± 0.5 nM. The IC50 (HDAC3/NcoR2) was 140 ± 10 nM, the PC-3M-luc cellular effect [1] was “ni ^b (ni = no inhibition (cellular effect <20% @ 50 μM))” and the MCF-7 cellular effect [2] was “ni ^b (ni = no inhibition (cellular effect <20% @ 50 μM))”. The EC50 [3] was 17200 ± 1000 nM, the IC50 (Sirt2 (demyristoylation)) was 13200 ± 1900 nM and the W1 cellular effect (W1 ovarian cancer cells) was “ni ^b (ni = no inhibition (cellular effect <20% @ 50 μM))”. It also gave an IC50 (HDAC2) of 340 ± 20 nM, an inhibition at 20 µM (Sirt1) of less than 15% and an IC50 (Sirt2) of 480 ± 70 nM.
